Experimental data published in ChEMBL document CHEMBL1201862, “PubChem BioAssay data set” (2004).
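These data come from cells grown in 96-well plates and exposed to compound for 48 hours at five concentrations. GI50: concentration for 50% inhibition of growth.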 Active and inactive are the calls of the source. Cut-off read from the data, not from the text of the source: active = GI50 up to about 1.1 µM and inactive = higher.

What was measured:
Assay in all cases: NCI tumour cell line growth inhibition, 48 h
[1] = tested on: SF-539
[2] = tested on: SNB-19
[3] = tested on: EKVX
[4] = tested on: ACHN
[5] = tested on: SK-MEL-28
[6] = tested on: OVCAR-4
[7] = tested on: HL-60
[8] = tested on: MDA-MB-435
[9] = tested on: NCI-H522
[10] = tested on: OVCAR-3
[11] = tested on: SF-268
[12] = tested on: NCI-H23
[13] = tested on: Malme-3M
[14] = tested on: COLO 205
[15] = tested on: T47D
[16] = tested on: SF-295
[17] = tested on: MDA-MB-231
[18] = tested on: HCT-116
[19] = tested on: HCC 2998
[20] = tested on: HOP-18

Measured: GI50

CC(CCC(=O)O)(c1cc(Br)c(O)c(Br)c1)c1cc(Br)c(O)c(Br)c1
inactive: [1] 50.4 µM | [2] 57.9 µM | [3] > 100 µM | [4] 87.1 µM | [5] 45 µM | [6] > 100 µM | [7] 21.4 µM | [8] 65.8 µM | [9] 39.6 µM | [10] 60.3 µM | [11] 59.7 µM | [12] 47.4 µM | [13] 58.9 µM | [14] > 100 µM | [15] 29.9 µM | [16] 98.4 µM | [17] 94.8 µM | [18] 50.4 µM | [19] 30.1 µM

O=C(O)c1ccc([N+](=O)[O-])c2c(=O)c3ccccc3[nH]c12
inactive: [1] > 100 µM | [2] > 100 µM | [4] > 100 µM | [6] > 100 µM | [7] > 100 µM | [9] > 100 µM | [11] > 100 µM | [13] > 100 µM | [14] > 100 µM | [16] > 100 µM | [18] > 100 µM | [20] > 100 µM | [19] > 100 µM

COc1ccc(/C=C2\N=C3N(Cc4ccccc4)C=C(N)N3C2=O)cc1
inactive: [1] > 100 µM | [2] 20.8 µM | [3] 59.4 µM | [4] > 100 µM | [5] > 100 µM | [6] > 100 µM | [7] 55 µM | [8] > 100 µM | [9] 49.1 µM | [10] > 100 µM | [11] > 100 µM | [12] > 100 µM | [13] > 100 µM | [14] > 100 µM | [15] > 100 µM | [16] 61.2 µM | [17] 36.2 µM | [18] > 100 µM | [19] > 100 µM

CCCCN1C(=O)C2c3[nH]c4ccccc4c3C3CCCCC3C2C1=O.CCCCN1C(=O)C2c3[nH]c4ccccc4c3[C@@H]3CCCCC3C2C1=O (stereo unspecified)
inactive: [1] 14.8 µM | [2] 23.4 µM | [3] 21.4 µM | [4] 7.36 µM | [5] 29.6 µM | [6] 2.38 µM | [7] 13.6 µM | [10] 12.4 µM | [11] 17.9 µM | [12] 16 µM | [14] 26.7 µM | [16] 7.93 µM | [18] 9.42 µM | [20] 2.26 µM | [19] 8.85 µM

COc1ccc(N2C(=O)C3c4[nH]c5ccc(OCc6ccccc6)cc5c4C4CCC(C(C)(C)C)CC4C3C2=O)cc1 (stereo unspecified)
inactive: [1] 46 µM | [2] > 100 µM | [3] > 100 µM | [4] > 100 µM | [5] 65.6 µM | [6] 29.8 µM | [7] > 100 µM | [8] 97.7 µM | [9] > 100 µM | [10] 57.5 µM | [11] > 100 µM | [12] > 100 µM | [13] 25.7 µM | [14] > 100 µM | [15] 17.5 µM | [16] > 100 µM | [17] 53.2 µM | [18] 42.4 µM | [19] > 100 µM

COCC(O)CN1C(N)=NC(O)C1O (stereo unspecified)
inactive: [1] > 100 µM | [2] > 100 µM | [3] > 100 µM | [4] > 100 µM | [5] > 100 µM | [7] > 100 µM | [9] > 100 µM | [11] > 100 µM | [12] > 100 µM | [13] > 100 µM | [14] > 100 µM | [16] > 100 µM | [20] > 100 µM | [19] > 100 µM

Sc1nn2c(COc3cc(Cl)c(OCc4nnc5sc(S)nn45)cc3Cl)nnc2s1
inactive: [1] 87.5 µM | [2] > 100 µM | [3] 5.51 µM | [4] 36.1 µM | [5] 31.3 µM | [6] 51.8 µM | [7] 37.8 µM | [8] 43.9 µM | [9] 20.1 µM | [10] 30.5 µM | [11] 44.6 µM | [12] > 100 µM | [13] 40.1 µM | [14] > 100 µM | [15] 26 µM | [16] > 100 µM | [17] > 100 µM | [18] 46 µM | [19] 36.1 µM

Cc1ccc(C(=O)c2[nH]c(Nc3ccc(Cl)cc3)c(C(=S)Nc3ccccc3)c2N)cc1
inactive: [1] 5.3 µM | [2] 5.61 µM | [3] 5.48 µM | [4] 3.27 µM | [5] 4.21 µM | [6] 1.97 µM | [7] 44.4 µM | [8] 6.68 µM | [9] 9.68 µM | [10] 11.3 µM | [11] 5.78 µM | [12] 3.14 µM | [13] 4.17 µM | [14] 1.45 µM | [15] 15.5 µM | [16] 2.13 µM | [17] 10.1 µM | [18] 3.72 µM | [19] 2.29 µM

Cc1ccc(NC(=O)CCc2nnc3s/c(=C\c4cccc([N+](=O)[O-])c4)c(=O)n23)cc1
inactive: [1] 25.3 µM | [2] 84.5 µM | [3] > 100 µM | [4] 84.7 µM | [5] > 100 µM | [6] > 100 µM | [9] 52.6 µM | [10] > 100 µM | [11] > 100 µM | [12] > 100 µM | [13] > 100 µM | [14] > 100 µM | [16] 59.2 µM | [18] > 100 µM | [20] > 100 µM | [19] > 100 µM

C[C@@H](CC(O)C(O)C(C)(C)O)C1CCC23CC12CCC1[C@@]2(C)CCC(O)C(C)(C)C2CC(OC2OC(CO)C(O)C(O)C2O)[C@]13C (stereo partly specified)
inactive: [1] > 10 µM | [2] > 10 µM | [3] > 10 µM | [4] > 10 µM | [5] > 10 µM | [6] > 10 µM | [7] > 10 µM | [8] > 10 µM | [9] > 10 µM | [10] > 10 µM | [11] > 10 µM | [12] > 10 µM | [13] > 10 µM | [14] > 10 µM | [15] > 10 µM | [16] > 10 µM | [17] > 10 µM | [18] > 10 µM | [19] > 10 µM

COc1cc2c3c(c1O)C1(C=CC(=O)C=C1)CC3N(C)CC2 (stereo unspecified) [GLAZIOVINE]
inactive: [1] 10.1 µM | [2] 14.3 µM | [3] 8.41 µM | [4] 14.5 µM | [5] 13.2 µM | [6] 5.97 µM | [7] 2.79 µM | [8] 11 µM | [9] 1.93 µM | [10] 5.37 µM | [11] 11 µM | [12] 11.2 µM | [13] 11.3 µM | [14] 5.4 µM | [15] 11.7 µM | [16] 12 µM | [17] 4.86 µM | [18] 3.81 µM | [19] 12.4 µM
